From patent publication US20100120778A1, “QUINOXALINE-BASED LXR MODULATORS” (Wyeth, priority 2008, published 2010)

Molecular target: T1, human LXRβ (Homo sapiens, UniProt P55055)
T1 construct: biotin (biotinylated); made in house; host or cells: E. coli
T1 sequence (P55055 1-460): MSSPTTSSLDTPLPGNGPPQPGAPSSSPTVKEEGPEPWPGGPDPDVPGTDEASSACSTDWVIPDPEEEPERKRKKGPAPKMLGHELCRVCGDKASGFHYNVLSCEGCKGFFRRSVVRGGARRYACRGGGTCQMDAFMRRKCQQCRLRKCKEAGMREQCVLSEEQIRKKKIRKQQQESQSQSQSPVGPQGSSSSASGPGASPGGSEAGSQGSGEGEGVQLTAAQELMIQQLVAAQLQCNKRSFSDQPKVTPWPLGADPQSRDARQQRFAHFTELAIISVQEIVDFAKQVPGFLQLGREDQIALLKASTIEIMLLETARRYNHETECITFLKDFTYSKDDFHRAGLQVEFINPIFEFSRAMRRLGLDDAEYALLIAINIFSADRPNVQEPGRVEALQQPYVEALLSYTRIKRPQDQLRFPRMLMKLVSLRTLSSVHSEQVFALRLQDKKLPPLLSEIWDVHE
Assay: Ligand-binding test procedure for human LXRβ (3H T0901317 tracer, flash plates)
Settings: biotinylated hLXRβ, tracer 3H T0901317, +4° C. over night
Protocol: I. Ligand-Binding Test Procedure for Human LXRβ.
Receptor source: E. coli extracted from cells expressing biotinylated hLXRβ. Extract was made in a similar buffer as above, but with 50 mM TRIS.
Washed streptavidin and coated flash plates with wash buffer. Diluted receptor extract to give Bmax˜4000 cpm and add to the wells. Wrapped the plates in aluminum foil and stored them at +4° C. overnight.
Made a dilution series in DMSO of the test ligands. Made a 5 nM solution of the radioactive tracer in buffer. Mixed 250 μl diluted tracer with 5 μl of the test ligand from each concentration of the dilution series. Washed the receptor-coated flash plates. Added 200 μl per well of the ligand/radiolabel mixture to the receptor-coated flash plates. Wrapped the plates in aluminum foil and incubate at +4° C. over night.
Aspirated wells, and washed the flashed plates. Sealed the plate.
Measured the remaining radioactivity in the plate.

Row | IC50 [nM] | Structure (SMILES)
1 | > 1000 | Cc1nc2c(C(F)(F)F)cccc2nc1-c1cccc(-c2cccc(S(C)(=O)=O)c2)c1 [Example 19, 3-methyl-2-[3′-(methylsulfonyl)biphenyl-3-yl]-5-(trifluoromethyl)quinoxaline]
2 | > 1000 | CNS(=O)(=O)c1cccc(-c2cccc(Oc3nc4cccc(Cl)c4nc3C)c2)c1 [Example 88, 3′-[(5-chloro-3-methylquinoxalin-2-yl)oxy]-N-methylbiphenyl-3-sulfonamide]
3 | > 1000 | CC(C)CS(=O)(=O)c1cccc(Oc2cccc(-c3cnc4cccc(C(F)(F)F)c4n3)c2)c1 [Example 17, 2-{3-[3-(isobutylsulfonyl)phenoxy]phenyl}-8-(trifluoromethyl)quinoxaline]
4 | 723 | CS(=O)(=O)c1cccc(-c2ccc(-c3nc4cccc(C(F)(F)F)c4nc3N)cc2)c1 [Example 33, 3-[3′-(methylsulfonyl)biphenyl-4-yl]-8-(trifluoromethyl)quinoxalin-2-amine]
5 | > 1000 | CCS(=O)(=O)c1cccc(Oc2cccc(-c3cnc4cccc(C(F)(F)F)c4n3)c2)c1 [Example 16, 2-{3-[3-(ethylsulfonyl)phenoxy]phenyl}-8-(trifluoromethyl)quinoxaline]
6 | > 1000 | CS(=O)(=O)c1cccc(Oc2ccc(-c3nc4ccccc4nc3C(F)(F)F)cc2)c1 [Example 27, 2-{4-[3-(methylsulfonyl)phenoxy]phenyl}-3-(trifluoromethyl)quinoxaline]
7 | > 1000 | Cc1nc2cccc(C(F)(F)F)c2nc1-c1cc(Oc2ccc(S(C)(=O)=O)cc2)ccc1Cl [Example 39, 3-{2-chloro-5-[4-(methylsulfonyl)phenoxy]phenyl}-2-methyl-5-(trifluoromethyl)quinoxaline]
8 | 353 | CCc1nc2cccc(C(F)(F)F)c2nc1-c1ccc(-c2cccc(S(C)(=O)=O)c2)cc1 [Example 34, 2-ethyl-3-[3′-(methylsulfonyl)biphenyl-4-yl]-5-(trifluoromethyl)quinoxaline]
9 | > 1000 | Cc1nc2cccc(C(F)(F)F)c2nc1-c1cc(Oc2ccccc2S(C)(=O)=O)ccc1Cl [Example 44, 3-{2-chloro-5-[2-(methylsulfonyl)phenoxy]phenyl}-2-methyl-5-(trifluoromethyl)quinoxaline]
10 | > 1000 | Cc1nc2c(Cl)cccc2nc1Oc1cccc(-c2cccc(NS(C)(=O)=O)c2)c1 [Example 90, N-{3′-[(5-chloro-3-methylquinoxalin-2-yl)oxy]biphenyl-3-yl}methanesulfonamide]
11 | > 1000 | CNS(=O)(=O)c1cccc(-c2ccc(Oc3cnc4c(Cl)cccc4n3)cc2)c1 [Example 86, 4′-[(5-Chloroquinoxalin-2-yl)oxy]-N-methylbiphenyl-3-sulfonamide]
12 | > 1000 | Cc1nc2c(C(F)(F)F)cccc2nc1-c1ccc(-c2ccc(S(C)(=O)=O)cc2)cc1 [Example 18, 3-methyl-2-[4′-(methylsulfonyl)biphenyl-4-yl]-5-(trifluoromethyl)quinoxaline]
13 | > 1000 | COc1cccc2nc(C)c(-c3ccc(-c4cccc(S(C)(=O)=O)c4)cc3)nc12 [Example 69, 5-methoxy-2-methyl-3-[3′-(methylsulfonyl)biphenyl-4-yl]quinoxaline]
14 | > 1000 | Cc1nc2c(C(F)(F)F)cccc2nc1-c1ccc(-c2ccccc2S(C)(=O)=O)cc1 [Example 21, 3-methyl-2-[2′-(methylsulfonyl)biphenyl-4-yl]-5-(trifluoromethyl)quinoxaline]
15 | > 1000 | CS(=O)(=O)c1cccc(-c2ccc(-c3nc4ccccc4nc3C(F)(F)F)cc2)c1 [Example 26, 2-[3′-(methylsulfonyl)biphenyl-4-yl]-3-(trifluoromethyl)quinoxaline]
16 | > 1000 | Cc1nc2c(C(F)(F)F)cccc2nc1-c1ccc(Oc2cccc(S(C)(=O)=O)c2)cc1F [Example 30, 2-{2-fluoro-4-[3-(methylsulfonyl)phenoxy]phenyl}-3-methyl-5-(trifluoromethyl)quinoxaline]
17 | > 1000 | CCS(=O)(=O)c1cccc(Oc2ccc(-c3nc4c(C(F)(F)F)cccc4nc3C)cc2)c1 [Example 15, 3-{4-[3-(ethylsulfonyl)phenoxy]phenyl}-2-methyl-5-(trifluoromethyl)quinoxaline]
18 | 63 | Cc1nc2c(C(F)(F)F)cccc2nc1-c1cc(Oc2cccc(S(=O)(=O)CCCN)c2)ccc1Cl [Example 45, 3-[(3-{4-chloro-3-[3-methyl-5-(trifluoromethyl)quinoxalin-2-yl]phenoxy}phenyl)sulfonyl]-propan-1-amine]
19 | 99.5 | Cc1nc2c(Cl)ccc(Cl)c2nc1-c1ccc(-c2cccc(S(C)(=O)=O)c2)cc1 [Example 35, 5,8-dichloro-2-methyl-3-[3′-(methylsulfonyl)biphenyl-4-yl]quinoxaline]
20 | > 1000 | CC(=O)Nc1cccc(-c2ccc(-c3nc4cccc(C(F)(F)F)c4nc3C)cc2)c1 [Example 51, N-{4′-[3-methyl-5-(trifluoromethyl)quinoxalin-2-yl]biphenyl-3-yl}acetamide]
21 | > 1000 | Cc1nc2c(C(F)(F)F)cccc2nc1-c1ccc(-c2ccc(C(=O)N3CCCC3)cc2)cc1 [Example 54, 3-methyl-2-[4′-(pyrrolidin-1-ylcarbonyl)biphenyl-4-yl]-5-(trifluoromethyl)quinoxaline]
22 | > 1000 | CS(=O)(=O)c1ccccc1-c1ccc(-c2cnc3cccc(C(F)(F)F)c3n2)cc1 [Example 24, 2-[2′-(methylsulfonyl)biphenyl-4-yl]-8-(trifluoromethyl)quinoxaline]
23 | > 1000 | Cc1nc2c(Cl)cccc2nc1Oc1cccc(-c2cccc(S(N)(=O)=O)c2)c1 [Example 89, 3′-[(5-chloro-3-methylquinoxalin-2-yl)oxy]biphenyl-3-sulfonamide]
24 | 640 | CNS(=O)(=O)c1cccc(-c2cccc(Oc3cnc4c(Cl)cccc4n3)c2)c1 [Example 84, 3′-[(5-Chloroquinoxalin-2-yl)oxy]-N-methylbiphenyl-3-sulfonamide]
25 | > 1000 | Cc1nc2cccc(C(F)(F)F)c2nc1-c1cc(Oc2ccc(S(=O)(=O)CC#N)cc2)ccc1Cl [Example 38, [(4-{4-chloro-3-[3-methyl-8-(trifluoromethyl)quinoxalin-2-yl]phenoxy}phenyl)sulfonyl]-acetonitrile]
26 | > 1000 | CS(=O)(=O)c1cccc(-c2ccc(-c3cnc4c(C(F)(F)F)cccc4n3)cc2)c1 [Example 22, 2-[3′-(methylsulfonyl)biphenyl-4-yl]-5-(trifluoromethyl)quinoxaline]
27 | > 1000 | Cc1nc2cccc(C(F)(F)F)c2nc1-c1ccc(-c2cccc(NS(C)(=O)=O)c2)cc1 [Example 47, N-{4′-[3-methyl-8-(trifluoromethyl)quinoxalin-2-yl]biphenyl-3-yl}methanesulfonamide]
28 | > 1000 | Cc1nc2c(C(F)(F)F)cccc2nc1-c1cccc(-c2ccc(S(C)(=O)=O)cc2)c1 [Example 20, 3-methyl-2-[4′-(methylsulfonyl)biphenyl-3-yl]-5-(trifluoromethyl)quinoxaline]
29 | > 1000 | Cc1nc2c(C(F)(F)F)cccc2nc1-c1cc(Oc2cccc(S(C)(=O)=O)c2)ccc1-c1ccccc1 [Example 40, 3-methyl-2-{4-[3-(methylsulfonyl)phenoxy]biphenyl-2-yl}-5-(trifluoromethyl)quinoxaline]
30 | > 1000 | Cc1nc2c(C(F)(F)F)cccc2nc1-c1ccc(-c2ccc(CCC(=O)O)cc2)cc1 [Example 55, 3-{4′-[3-methyl-5-(trifluoromethyl)quinoxalin-2-yl]biphenyl-4-yl}propanoic acid]
